One series has as its target T1, hKv3.1b (Homo sapiens, UniProt P48547).
T1 construct: expressed in transfected cells
T1 sequence (P48547 1-585 isoform P48547-2): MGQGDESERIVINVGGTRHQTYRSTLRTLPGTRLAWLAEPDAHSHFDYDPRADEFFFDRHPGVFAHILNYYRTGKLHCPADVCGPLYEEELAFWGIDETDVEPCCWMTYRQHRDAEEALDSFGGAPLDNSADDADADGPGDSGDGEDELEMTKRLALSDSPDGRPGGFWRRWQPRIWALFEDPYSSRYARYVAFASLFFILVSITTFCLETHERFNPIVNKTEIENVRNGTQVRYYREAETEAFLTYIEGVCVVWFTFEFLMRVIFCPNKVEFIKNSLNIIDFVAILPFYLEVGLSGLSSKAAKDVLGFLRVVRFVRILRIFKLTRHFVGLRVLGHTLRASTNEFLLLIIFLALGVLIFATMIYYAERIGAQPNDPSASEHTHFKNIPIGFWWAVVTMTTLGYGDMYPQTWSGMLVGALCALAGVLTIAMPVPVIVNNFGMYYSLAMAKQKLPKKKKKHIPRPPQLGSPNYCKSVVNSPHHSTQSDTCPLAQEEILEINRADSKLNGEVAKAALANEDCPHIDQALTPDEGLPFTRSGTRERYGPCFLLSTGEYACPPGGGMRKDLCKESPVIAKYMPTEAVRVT
The series is described as follows: Automated patch clamp (QPatch-16x) on HEK-293 cells stably expressing hKv3.1b. It counts as cell-based. The settings on record: for hKv3.1 (Qpatch) ECΔ30% increase: concentration increasing current by 30% at the −10 mV step; for hKv3.1 (Qpatch) ECΔ30% increase / hKv3.1 (Qpatch) ECΔ5 mV: automated patch clamp; for ECdelta5 mV: concentration needed to shift the activation threshold 5 mV; for hKv3.1 (Qpatch) ECΔ5 mV: concentration that shifts activation threshold by 5 mV in hyperpolarized direction; for Threshold Shift: maximum absolute hyperpolarizing shift of activation threshold at tested concentrations 0.37-30 μM. In outline: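 Whole-cell automated patch clamp, extracellular pH 7.4, 4 mM Na2ATP intracellular; holding −80 mV, 200 ms steps −70 to +10 mV. Five ascending concentrations (0.37–30 μM) per cell, ~3 min each, 0.33% DMSO vehicle. Activation threshold (5% of vehicle peak at 10 mV) shift fitted sigmoidally; ECdelta5 mV read from curve.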

Series [1] can be described thus: Unbound fraction in plasma. It counts as in vitro ADME, rat.

`Cc1ccc(S(=O)(=O)n2ccc(C(=O)NCc3ncco3)c2)cc1` [Compound 86, 1-(4-methylbenzene-1-sulfonyl)-N-[(1,3-oxazol-2-yl)methyl]-1H-pyrrole-3-carboxamide]: on hKv3.1b, the “hKv3.1 (Qpatch) ECΔ30% increase” value was 2.9 µM, the “ECdelta5 mV” value amounted to 2800 nM, the “hKv3.1 (Qpatch) ECΔ5 mV” value was 2.7 µM and the “Threshold Shift” value worked out at 17 mV. The fraction unbound in series [1] (rat table footnote) worked out at 0.12.
For the compound `Cc1cnc(CNC(=O)c2ccn(S(=O)(=O)c3ccc(F)cc3C)c2)cn1` [Compound 90, 1-(4-fluoro-2-methylbenzene-1-sulfonyl)-N-[(5-methylpyrazin-2-yl)methyl]-1H-pyrrole-3-carboxamide], at hKv3.1b, the “hKv3.1 (Qpatch) ECΔ30% increase” value was found to be 1.6 µM, the “ECdelta5 mV” value was found to be 1300 nM, the “hKv3.1 (Qpatch) ECΔ5 mV” value was determined as 1.2 µM and the “Threshold Shift” value is 32 mV. This compound also displayed a fraction unbound in series [1] (rat PK table footnote) of 0.1.

The fraction unbound is free concentration divided by total concentration.

The values above are taken from US20200131156A1, “ARYLSULFONYLPYROLECARBOXAMIDE DERIVATIVES AS Kv3 POTASSIUM CHANNEL ACTIVATORS” (H. Lundbeck A/S, priority 2018, published 2020).
